Measured values as given in ChEMBL document CHEMBL1143487, “Solid support synthesis of 6-aryl-2-substituted pyrimidin-4-yl phenols as anti-infective agents” (2005).
Converted amounts (≈) assume the structure as drawn. The source made the active and inactive calls. The calls are words filed in the database; no cut-off is given here.

Experiments:
[1] = tested on: Mycobacterium tuberculosis; test: Minimum inhibitory concentration against Mycobacterium tuberculosis; type: functional
Plasmodium falciparum = test: Minimum inhibitory concentration against Plasmodium falciparum; type: functional
[2] = tested on: Mycobacterium tuberculosis; test: Minimum inhibitory concentration against Mycobacterium tuberculosis; - = inactive; type: functional, organism-based

SMILES | MIC [1] [µg/mL] | MIC (Plasmodium falciparum) [µg/mL] | MIC [2]
COc1ccc(-c2cc(-c3ccc(O)cc3)nc(N3CCCC3)n2)cc1OC | 25 (≈ 66.2 µM) | 1 (≈ 2.65 µM) | 
Cc1ccc(-c2cc(-c3ccc(O)cc3)nc(N)n2)cc1 |  | 50 (≈ 180 µM) | inactive
COc1ccc(-c2cc(-c3ccc(O)cc3)nc(N)n2)cc1 |  | 50 (≈ 170 µM) | inactive
COc1ccc(OC)c(-c2cc(-c3ccc(O)cc3)nc(N3CCN(C)CC3)n2)c1 | 12.5 (≈ 30.8 µM) | 0.25 (≈ 0.615 µM) | 
Nc1nc(-c2ccccc2)cc(-c2ccc(O)cc2)n1 |  | 10 (≈ 38 µM) | inactive
Oc1ccc(-c2cc(-c3ccccc3)nc(N3CCN(c4ccccc4)CC3)n2)cc1 | 25 (≈ 61.2 µM) | 10 (≈ 24.5 µM) | 
COc1ccc(OC)c(-c2cc(-c3ccc(O)cc3)nc(N3CCN(c4ccccc4)CC3)n2)c1 |  | 2 (≈ 4.27 µM) | inactive
COc1ccc(-c2cc(-c3ccc(O)cc3)nc(N3CCN(C)CC3)n2)cc1OC | 12.5 (≈ 30.8 µM) | 0.25 (≈ 0.615 µM) | 
COc1ccc(-c2cc(-c3ccc(O)cc3)nc(N3CCN(C)CC3)n2)cc1 | 25 (≈ 66.4 µM) | 0.5 (≈ 1.33 µM) | 
Cc1ccc(-c2cc(-c3ccc(O)cc3)nc(N3CCN(Cc4ccccc4)CC3)n2)cc1 |  | 2 (≈ 4.58 µM) | inactive
CN1CCN(c2nc(-c3ccccc3)cc(-c3ccc(O)cc3)n2)CC1 | 25 (≈ 72.2 µM) | 0.5 (≈ 1.44 µM) | 
COc1ccc(-c2cc(-c3ccc(O)cc3)nc(N3CCN(c4ccccc4)CC3)n2)cc1 |  | 2 (≈ 4.56 µM) | inactive
Oc1ccc(-c2cc(-c3ccccc3)nc(N3CCCCC3)n2)cc1 | 25 (≈ 75.4 µM) | 2 (≈ 6.03 µM) | 
Cc1ccc(-c2cc(-c3ccc(O)cc3)nc(N3CCN(C)CC3)n2)cc1 | 25 (≈ 69.4 µM) | 1 (≈ 2.77 µM) | 
COc1ccc(OC)c(-c2cc(-c3ccc(O)cc3)nc(N3CCCC3)n2)c1 | 25 (≈ 66.2 µM) | 1 (≈ 2.65 µM) | 
COc1ccc(-c2cc(-c3ccc(O)cc3)nc(N3CCN(Cc4ccccc4)CC3)n2)cc1OC |  | 0.5 (≈ 1.04 µM) | inactive
COc1ccc(-c2cc(-c3ccc(O)cc3)nc(N)n2)cc1OC | 12.5 (≈ 38.7 µM) | 10 (≈ 30.9 µM) | 
COc1ccc(OC)c(-c2cc(-c3ccc(O)cc3)nc(N3CCCCC3)n2)c1 | 25 (≈ 63.9 µM) | 1 (≈ 2.55 µM) | 
Cc1ccc(-c2cc(-c3ccc(O)cc3)nc(N3CCCC3)n2)cc1 |  | 2 (≈ 6.03 µM) | inactive
COc1ccc(-c2cc(-c3ccc(O)cc3)nc(N3CCCCC3)n2)cc1 |  | 0.5 (≈ 1.38 µM) | inactive
COc1ccc(-c2cc(-c3ccc(O)cc3)nc(N3CCCCC3)n2)cc1OC | 25 (≈ 63.9 µM) | 1 (≈ 2.55 µM) | 
Oc1ccc(-c2cc(-c3ccccc3)nc(N3CCN(Cc4ccccc4)CC3)n2)cc1 | 25 (≈ 59.2 µM) | 1 (≈ 2.37 µM) | 
COc1ccc(OC)c(-c2cc(-c3ccc(O)cc3)nc(N)n2)c1 | 25 (≈ 77.3 µM) | 10 (≈ 30.9 µM) | 
COc1ccc(OC)c(-c2cc(-c3ccc(O)cc3)nc(N3CCN(Cc4ccccc4)CC3)n2)c1 | 25 (≈ 51.8 µM) | 0.25 (≈ 0.518 µM) | 
COc1ccc(-c2cc(-c3ccc(O)cc3)nc(N3CCN(c4ccccc4)CC3)n2)cc1OC |  | 1 (≈ 2.13 µM) | inactive
Oc1ccc(-c2cc(-c3ccccc3)nc(N3CCCC3)n2)cc1 | 25 (≈ 78.8 µM) | 2 (≈ 6.3 µM) | 
Cc1ccc(-c2cc(-c3ccc(O)cc3)nc(N3CCN(c4ccccc4)CC3)n2)cc1 |  | 10 (≈ 23.7 µM) | inactive
COc1ccc(-c2cc(-c3ccc(O)cc3)nc(N3CCN(Cc4ccccc4)CC3)n2)cc1 |  | 1 (≈ 2.21 µM) | inactive
Cc1ccc(-c2cc(-c3ccc(O)cc3)nc(N3CCCCC3)n2)cc1 |  | 2 (≈ 5.79 µM) | inactive
COc1ccc(-c2cc(-c3ccc(O)cc3)nc(N3CCCC3)n2)cc1 |  | 1 (≈ 2.88 µM) | inactive
